Test results as given in patent publication US10870832B2, “Use of small molecules to enhance MAFA expression in pancreatic endocrine cells” (Janssen Biotech, Inc., priority 2014, dated 2020).

Columns and labels:
Type in all cases: cell-based, human
MAFA expression [1] = test: Stage 7 treatment, real-time PCR of MAFA (Example 7); conditions: Stage 7, day 14, 2 μM R428 or 2-5 μM inhibitor substituted for R428, H1-derived cells, mRNA
Procedure: (§1) Cells of the human embryonic stem cell line H1 (WA01) were seeded as single cells at 1×10^5 cells/cm^2 on MATRIGEL™ (1:30 dilution) coated dishes in E8 media. At about 70 to 80% confluency, the cultures were washed in 1× incomplete DPBS followed by incubation with 1× TrypLE™ Express Enzyme for 3 to 5 minutes at 37° C. The released cells were rinsed with E8 and spun at 1000 rpm for 5 minutes. The resulting cell pellet was resuspended in E8 supplemented with 10 μM Y-27632 and the single cell suspension was seeded at approximately 1.3 to 1.5×10^5 cells/cm^2. The cultures were fed every day with E8 medium and differentiation, according to the following protocol, was initiated 48 hrs. following seeding resulting in an about 90% starting confluency.
Stage 6 cells were cultured for fourteen days in BLAR medium supplemented with a 1:100 dilution of ITS-X; 20 mM glucose (final); 1.5 g/L sodium bicarbonate; 2% FAF-BSA; 10 μg/ml of heparin, 10 μM ZnSO4, 1 μM T3 as 3,3′, 5-triiodo-L-thyronine sodium salt, 10 μM ALK5 inhibitor II, 1 mM N-acetyl cysteine. Some cultures also included one of 2 μM R428, 2-5 μM RSK inhibitor II (2-(3,5-Difluoro-4-hydroxy-anilino)-8-isopentyl-5,7-dimethyl-7H-pteridin-6-one) (EMD Millipore; Catalog No, 559286-5MG), 2-5 μM aurora kinase inhibitor II (EMD Millipore, or a combination of 2-5 μM RSK inhibitor II and 2-5 μM aurora kinase II inhibitor.
At Stage 7, day 14, mRNA was collected and compared to undifferentiated human stem cells.

MAFA expression [2] = test: Small molecule screen at Stage 6 or 7, real-time PCR (Example 2); conditions: added at Stage 6, 1 μM, H1-derived cells at air-liquid interface
Procedure: Cells of the human embryonic stem cell line H1 (WA01) at passage 42 were seeded as single cells at 1×10^5 cells/cm^2 on MATRIGEL™ (1:30 dilution)-coated dishes in a media comprising of DMEM-F12, GlutaMAX™ (1:100 dilution), 0.25 mM ascorbic acid, 100 ng/ml of FGF2 (R & D systems, MN), 1 ng/ml of TGF-β, ITS-X (1:100 dilution), 2% FAF-BSA, and 20 ng/ml of IGF-1, supplemented with 10 μM of Y-27632. Forty-eight hours post-seeding, the cultures were washed in incomplete PBS (phosphate buffered saline without Mg or Ca) followed by incubation with 1× TrypLE™ Express Enzyme (Life Science; Catalog No. 14190) for 3 to 5 minutes at 37° C. The released cells were rinsed with DMEM-F12 and spun at 1000 rpm for 5 minutes. The resulting cell pellet was resuspended in DMEM-F12 supplemented with 10 μM Y-27632, 1× GlutaMAX™, 0.25 mM ascorbic acid, 100 ng/ml FGF2, 1 ng/ml TGF-β, ITS-X at a 1:100 dilution, 2% FAF-BSA and 20 ng/ml of IGF-1 and the single cell suspension was seeded at approximately 1.3 to 1.5×10^5 cells/cm^2. The cultures were fed every day with medium and differentiation, according to the following protocol, was initiated 48 hours following seeding resulting in an about 90% starting confluency. […]
At Stages 6 or 7, various small molecules were added and their effect was evaluated by real-time PCR.

MAFA expression [3] = test: Stage 7 treatment, real-time PCR of MAFA (Example 6); conditions: Stage 7, day 7, 2 μM in Stage 7 medium, H1-derived cells, mRNA
Procedure: as §1, with “TrypLET™” for “TrypLE™”
(§2) Stage 6 cells were cultured for seven days in BLAR medium supplemented with a 1:100 dilution of ITS-X; 20 mM glucose (final); 1.5 g/L sodium bicarbonate; 2% FAF-BSA; 10 μg/ml of heparin, 10 μM ZnSO4, 1 μM T3 as 3,3′, 5-triiodo-L-thyronine sodium salt, 10 μM ALK5 inhibitor II, 1 mM N-acetyl cysteine. […]
(§3) At Stage 7, day 7, mRNA was collected and expression of MAFA, UCN3, PDX1, NKX6.1, insulin and G6PC2 evaluated as compared to undifferentiated human stem cells. […]

UCN3 expression = test: Stage 7 treatment, real-time PCR of UCN3 (Example 6); conditions: Stage 7, day 7, 2 μM in Stage 7 medium, H1-derived cells, mRNA
Procedure: as §1, with “TrypLET™” for “TrypLE™”
as §2, §3

G6PC2 expression = test: Stage 7 treatment, real-time PCR of G6PC2 (Example 6); conditions: Stage 7, day 7, 2 μM in Stage 7 medium, H1-derived cells, mRNA
Procedure: as §1, with “TrypLET™” for “TrypLE™”
as §2, §3

## CC(C)CCN1c2nc(Nc3cc(F)c(O)c(F)c3)ncc2N(C)C(=O)C1C (racemic) [RSK inhibitor, 2-(3,5-Difluoro-4-hydroxy-anilino)-8-isopentyl-5,7-dimethyl-7H-pteridin-6-one]
MAFA expression [1]
  MAFA expression: restored MAFA expression

## CC(C)N(C[C@H]1O[C@@H](n2cnc3c(N)ncnc32)[C@H](O)[C@@H]1O)[C@H]1C[C@@H](CCc2nc3ccc(C(C)(C)C)cc3[nH]2)C1 [EPZ-5676, 9H-Purin-6-amine, 9-[5-deoxy-5-[[cis-3-[2-[6-(1,1-dimethylethyl)-1H-benzimidazol-2-yl]ethyl]cyclobutyl](1-methylethyl)amino]-β-D-ribofuranosyl]-]
MAFA expression [2]
  expression of MAFA as compared to untreated cultures: significantly upregulated

## COc1cc2ncnc(Nc3ccc(NC(=O)c4ccccc4)cc3)c2cc1OC [aurora kinase inhibitor II, 4-(4′-Benzamidoanilino)-6,7-dimethoxyquinazoline]
MAFA expression [3]
  MAFA expression: increase in MAFA expression
UCN3 expression
  UCN3 expression: maintenance of UCN3 and G6PC2 expression
G6PC2 expression
  G6PC2 expression: maintenance of UCN3 and G6PC2 expression
MAFA expression [1]
  MAFA expression: restored MAFA expression
